For 87 compounds, melting point results are on record in a melting point compilation (Tetko et al.; mined from patent text by program, amines drawn as free bases though some values may be those of a salt).

Structures are written as SMILES.

Usually melting point stands for the temperature of the solid-liquid transition. With `CN(C)C(=O)c1ccc(NS(C)(=O)=O)c(Oc2ccc(F)cc2F)c1`, the melting point lay within 165 to 167 °C.
Compound `CCC(CC)N(Cc1ccc(S(C)(=O)=O)cc1)S(=O)(=O)c1ccc(Cl)cc1` showed a melting point of 166 to 168 °C.
For `Cc1c(NC(=O)c2ccc(OC[C@@H]3CCCO3)cc2)ccc2cc(CNCC(C)C)[nH]c12` the value was 159 °C; for `O=[N+]([O-])c1ccc(Oc2ccc(C(F)(F)F)cc2Cl)nc1Cl`, 53 to 59 °C; for `CCCCNC(=O)Oc1cccc(NC(=O)C=C(C)OC)c1`, 166 °C.
With `Cc1c(Br)cccc1NS(=O)(=O)c1cc(S(=O)(=O)Nc2cccc(Br)c2C)c2cc(O)ccc2c1` the figure was 129 to 131 °C; with `O=P(O)(O)C(F)(F)c1ccc(CN(Cc2ccc(C(F)(F)P(=O)(O)O)cc2)S(=O)(=O)c2ccccc2Cl)cc1`, 170 to 172 °C.
With `O=C(Oc1ccccc1)OC1c2nccnc2C(=O)N1c1ccc(Cl)cn1` (configuration not stated) the figure was 193 °C; with `CC(C)(C)c1ccnc(-c2cc(C(C)(C)C)ccn2)c1`, 159 to 160 °C.
Compound `Cc1cccc(N(C=C(C#N)C#N)N=C(C#N)C#N)c1` registered a melting point of 157 to 159 °C.
For `N#Cc1cccc(-c2cc(-c3ccc(C#N)cc3Cl)no2)c1` the value was 221 to 223 °C; for `O=C(O)c1ccc(C(=O)N2Cc3cccn3Cc3ccccc32)cc1`, 210 to 214 °C; for `C=CCc1c(C(F)(F)F)[nH]n(-c2ccc(Br)c(Cl)c2)c1=O`, 117 °C.
For `Nc1c(-c2ccccc2)sc2ccccc12` the value was 110 to 112 °C.
For `O=C(/C=C/c1ccc(C(F)(F)F)cc1Br)Nc1ccc2[nH]ccc2c1` the value was 205 to 207 °C.
In turn, `CC(C)(C)OC(=O)c1cc(-c2ccccc2)c(=O)n2ccc3ccsc3c12` returned a melting point of 155 to 157 °C.
`Cc1cc(COc2ccc(C(=O)NC[C@@H](C(=O)NO)N3CCN(Cc4ccc(F)cc4)CC3)cc2)c2ccccc2n1` returned a melting point of 167 °C.
For `O=C(CCl)Nc1cc(Oc2ncccc2C(F)(F)F)c(Cl)cc1F` the value was 146 to 149 °C; for `CCNc1cccnc1N1CCN(C(=O)c2ccc(C(=O)N3CCN(CCO)CC3)cc2)CC1`, 152 to 153 °C.
For `Cc1cc(-c2cc(C(F)(F)F)n3ncc(-c4ccccn4)c3n2)ccc1Cl` the value was 183 °C; for `CCOC(=O)c1c(O)c2ccccc2n(Cc2ccc(F)cc2)c1=O`, 116 to 120 °C.
Compound `Cc1oc(-c2ccccc2)nc1COc1ccc(COc2ccc3ccccc3c2CC#N)cc1` showed a melting point of 178 to 179 °C.
The compound `N#CN1CCc2cccc(Cl)c2CC1` displayed a melting point of 81 to 82 °C.
With `COC(=O)[C@H](CC(C)C)NC(=O)[C@@H]1CSC(=O)N1` the figure was 125 to 126 °C; with `Nc1ccc(C(=O)NC2CCN(CCCn3cnc4c(N)ncnc43)CC2)cc1`, 247 to 248 °C; with `CC(Cc1c[nH]c2ccccc12)(NC(=O)OC1C2CC3CC(C2)CC1C3)C(=O)NCC(NC(=O)C1CC1C(=O)O)c1ccccc1` (configuration not stated), 138 to 142 °C.
For `CCOC(=O)C1=C(N(C)C)N=C(C)C(C(=O)OCC)C1c1cccc(Cl)c1` (configuration not stated) the value was 79 °C; for `CCOC(=O)c1c(OCN2C(=O)c3c(C(C)C)cc(OC)cc3S2(=O)=O)nc2ncccn2c1=O`, 189 to 191 °C.
For `O=[N+]([O-])c1ccc(S(=O)(=O)NCc2ccccc2)c([N+](=O)[O-])c1` the value was 150 to 151 °C; for `C=CCOc1ccc2c(C)cc(=O)oc2c1`, 110 °C.
`CCOC(=O)c1ncc2c(c1COC)c1c(OCc3ccccc3)cccc1n2S(=O)(=O)c1ccc(C)cc1` returned a melting point of 149 to 150 °C.
For `O=C1Nc2ccccc2SC1c1ccc(F)cc1` (configuration not stated) the value was 216 to 219 °C; for `Cc1oc(-c2ccccc2)nc1CCOc1ccc(C[C@H](NC(=O)C=Cc2ccc(F)cc2F)C(=O)O)cc1`, 199 to 201 °C.
The compound `COc1cc2c(cc1OC)C(O)(c1ccccn1)CC(C)(C)CO2` (configuration not stated) returned a melting point of 90 °C.
With `COC(=O)CC(=O)Nc1cccc(COc2ccc(C(C)=O)c(F)c2)c1` the figure was 102 to 104 °C.
For `CC(=O)N(C)c1cc(Br)cc(S(=O)(=O)c2ccccc2)c1` the value was 147 to 148 °C; for `CCCCCCCc1cnc([C@H]2CC[C@H](CCCCC)CC2)nc1`, 22 °C; for `CC(C)c1ccc(CCNc2ncnc3c(F)cccc23)cc1`, 170 to 172 °C.
With `CCCC1CCC(C2CCC(C3CCC(C(=O)OC)C(=O)C3)CC2)CC1` (configuration not stated) the figure was 154 °C; with `CC(C)(C(N)=O)c1nnc2ccc(OCCCN3CCC(OC(c4ccccc4)c4ccccc4)CC3)nn12`, 133 to 136 °C; with `C=CCNc1cc(Oc2ccccc2)ccc1[N+](=O)[O-]`, 67 to 68 °C.
In turn, `COc1ccc(Cc2ccc3c(c2)OCO3)c(OC)c1` yielded a melting point of 51 °C.
For `CS(=O)(=O)c1ccccc1SCc1ccccc1` the value was 132 to 133 °C.
For `CCCc1cc(C(O)=S)cc(N)c1Oc1ccccc1` the value was 136 to 138 °C; for `CCCCCCCCCCC[C@H](CC(=O)N[C@@H](CO)C(=O)OCc1ccccc1)OC(=O)CCCCCCCC`, 52 to 53 °C.
For `CC(C)C(O)(Cn1cncn1)c1ccc(Oc2ccc(Cl)cc2)cc1C(F)(F)F` (configuration not stated) the value was 114 °C; for `O=C(CCl)Oc1ccccc1CCC1SCCN1C(=O)CCl` (configuration not stated), 88 to 89 °C; for `CCCCN(C)C(N)=C(C#N)C#N`, 160 to 161 °C.
`CCOC(=O)CC(=O)CC(O)/C=C/c1c(-c2ccccc2)c2ccccc2c(=O)n1C` (configuration not stated) registered a melting point of 148 to 149 °C.
For `COc1ccc(N(C(=O)CN2C(=O)C(Cc3cc(C)nn3Cc3ccccc3)C(=O)N(c3ccccc3)c3ccccc32)C(C)C)cc1` (configuration not stated) the value was 117 to 120 °C; for `CC(C)CC1CC(=O)c2cc(CC(=O)O)ccc21` (configuration not stated), 140 to 142 °C.
With `CCOC(=O)c1c2ccc(Cl)cc2c(-c2ccccc2)n1CCCC(C)=O` the figure was 94 to 95 °C; with `COc1c(OCCC(NC(=O)OCc2ccccc2)C(=O)O)cc2c(c1OC)C1=C(CCC1)C(=NNC1=CCNCN1)CC2` (racemic), 172 °C; with `CN1CCN(C(=O)c2cc(N)cc3c2OCCO3)CC1`, 170 °C.
With `N#CN=c1ncccn1Cc1ccc(Cl)nc1` the figure was 218 to 220 °C.
Turning to `CSc1cc(CBr)cc(SC)c1`, the melting point lay in the range of 76 to 77 °C.
`CC1OCC(C)n2c1nc1c(N)nc3ccccc3c12` (configuration not stated) showed a melting point of 218 to 223 °C.
With `CC(C)(C)C1(C)C(=O)N=C2c3ccccc3C(=O)N21` (configuration not stated) the figure was 136 to 138 °C.
For `CN1C(=O)C(c2cc[nH]c2)(c2cccc(OCc3ccccc3)c2)N=C1N` (configuration not stated) the value was 98 to 100 °C; for `CNC(=O)c1ccccc1Nc1nc(Nc2ccc3c(c2)CCN(S(C)(=O)=O)CC3)ncc1Cl`, 251 to 256 °C.
For `C#Cc1ccc2c(c1)C(c1ccccn1)=NC(C)c1c(C(=O)OCC)ncn1-2` (configuration not stated) the value was 235 to 237 °C; for `O=C(NCCN1CCN(c2cccc(Cl)c2)CC1)NC12CC3CC(CC(C3)C1)C2`, 136 to 137 °C; for `COc1ccc(SC2(Sc3ccc(OC)cc3)CCC3C4CCC5=CC(=O)C=CC5(C)C4(F)C(O)CC32C)cc1` (configuration not stated), 209 to 211 °C.
Compound `COc1cc(C(=O)N(C(C)C)C2CCCCC2)ccc1Cn1c(CN(C)C)nc2ncccc21` had a melting point of 141 to 142 °C.
For `CN(C(N)=O)C1CCCc2ccccc21` (configuration not stated) the value was 160 to 163 °C; for `CC(C)N1C(=O)NC(NC2CC2)NC1=O`, 237 to 239 °C; for `NC(=O)c1cc2cc(Br)ccc2o1`, 210 to 213 °C.
With `CC(NC(=O)N1CCc2cc(S(=O)(=O)N3CCN(c4cccc(Cl)c4)CC3)ccc21)C(=O)O` (configuration not stated) the figure was 175 to 176 °C; with `c1ccc(-c2nc(-c3ccc(CN4CCCCCC4)s3)n[nH]2)nc1`, 160 to 162 °C.
For `CCN(CCOc1cccnc1F)CCN1C(=O)c2ccccc2C1=O`, the melting point lay in the range of 58 to 60 °C.
For `COC(=O)CCCc1cc2nc(Cl)ccc2n1S(=O)(=O)c1ccc2ncccc2c1` the value was 133 to 141 °C; for `O=C(O)c1c(F)c(F)c(O)c(Cl)c1F`, 87 to 90 °C.
For `COc1cc(C(=O)N2Cc3ccc(C(=O)NCc4c(CO)cnc(C)c4O)n3Cc3ccccc32)ccc1-c1ccccc1C` the value was 179 °C; for `C[C@H]1C[C@@H](NC(=O)C(F)(F)F)CC(O)O1` (some centres not stated), 159 to 160 °C.
With `CCCNC(=N)NC(=O)NCc1ccccn1` the figure was 195 to 197 °C; with `CCC(C)OC1OCC(O)(N(CC(C)C)C(=O)N(CCCl)N=O)C(O)C1O` (configuration not stated), 63 to 65 °C.
The compound `OCCSc1cccc2nccn12` showed a melting point of 99 to 100 °C.
With `CC(C)C(=O)NCCCC1COCc2nc3c(N)nc4ccccc4c3n21` (configuration not stated) the figure was 207 to 208 °C.
For `O=C1c2ccccc2C(=O)N1OCc1cc(=O)c(OCc2ccccc2)co1` the value was 172 °C.
As to `CCOC(=O)Cc1c(C)n(Cc2cccc(O)c2)c2ccc(OC)cc12`, the melting point lay within 114 to 116 °C.
For `NN(CCO)c1ccc(-c2ccc(Cl)cc2)nn1` the value was 172 to 174 °C; for `Cc1[nH]c(-c2ccccc2)nc1C(C)O` (configuration not stated), 189 to 190 °C; for `COc1ccc(C(=O)c2[nH]c3cc(Cl)ccc3c2CC(=O)O)cc1`, 187 to 190 °C.
For `NC(=O)CN1C(=O)[C@@H](NC(=O)c2ccccc2)[C@H](c2ccccc2)Sc2ccccc21` (relative stereo) the value was 246 to 248 °C.
For the compound `CC(=O)c1ccc2c(c1)Sc1ccccc1O2`, the melting point was determined as 112 °C.
Take `CC(=O)NCc1ccc2ccn(C3CCN(CCc4ccc(F)cc4)CC3)c2c1`: the melting point fell in the range of 127 to 128 °C.
In the case of `COCOc1cc(CO)n(Cc2ccc(Cl)cc2Cl)n1`, the melting point lay within 82 to 83 °C.
